Source: ChEMBL document CHEMBL3414439, “Design, synthesis and biological evaluation of piperic acid triazolyl derivatives as potent anti-inflammatory agents” (Eur J Med Chem, 2015)
The source made the active and inactive calls. No cut-off for these calls is given here.

How the values were obtained:
Rattus norvegicus [1] = test: Antiinflammatory activity in rat assessed as inhibition of carrageenan-induced paw volume at 20 mg/kg, po administered 1 hr prior to carrageenan challenge measured after 5 hrs relative to vehicle-treated control; type: functional
Rattus norvegicus [2] = test: Antiinflammatory activity in rat assessed as inhibition of carrageenan-induced paw volume at 20 mg/kg, po administered 1 hr prior to carrageenan challenge measured after 3 hrs (reference value: 1.68 +/- 0.029 ml); type: functional
[3] = Reduction in carrageenan-induced lipid peroxidation in gastric mucosa tissue (unknown origin) assessed as MDA after 30 mins; type: functional, tissue-based
Rattus norvegicus [4] = test: Antiinflammatory activity in rat assessed as inhibition of carrageenan-induced paw volume at 20 mg/kg, po administered 1 hr prior to carrageenan challenge measured after 5 hrs (reference value: 1.70 +/- 0.020 ml); type: functional
[5] = Cytotoxicity against mouse RAW264.7 cells assessed as cell viability at 20 uM after 24 hrs by MTT assay; type: cell-based; details: read-out: Activity
Mus musculus [6] = test: Analgesic activity in Swiss Albino acetic acid-induced writhing mouse model assessed as number of writhes at 20 mg/kg, po administered 30 mins before to acetic acid challenge measured for 10 mins (reference value: 92.8 +/- 1.49); type: functional
Mus musculus [7] = test: Analgesic activity in Swiss Albino acetic acid-induced writhing mouse model assessed as protection at 20 mg/kg, po administered 30 mins before to acetic acid challenge measured for 10 mins; type: functional
RAW264.7 = test: Antiinflammatory activity against mouse RAW264.7 cells assessed as inhibition of LPS-induced TNFalpha level at 20 uM after 24 hrs by ELISA relative to untreated control; type: functional; details: RAW264.7, 24 h
Rattus norvegicus [8] = test: Antiinflammatory activity in rat assessed as inhibition of carrageenan-induced paw volume at 20 mg/kg, po administered 1 hr prior to carrageenan challenge measured after 3 hrs relative to vehicle-treated control; type: functional
Rattus norvegicus [9] = test: Ulcerogenic effect in Albino Wistar rat assessed as damage in gastric mucosa at 60 mg, po after 5 hrs; type: toxicity, organism-based; details: in vivo
[10] = Inhibition of carrageenan-induced NFkappaB expression in paw tissue (unknown origin) by immunohistochemistry; type: functional
[11] = Inhibition of carrageenan-induced TNFalpha expression in paw tissue (unknown origin) by immunohistochemistry; type: functional
[12] = Inhibition of carrageenan-induced COX-2 expression in paw tissue (unknown origin) by immunohistochemistry; type: functional

O=C(/C=C/C=C/c1ccc2c(c1)OCO2)OCc1cn(-c2ccc(Cl)cc2Cl)nn1
inhibition in vivo at 20 mg/kg (Rattus norvegicus [1]): 71.2%
Activity (Rattus norvegicus [2]): 0.64 mL
inhibition [3]: Active
Activity (Rattus norvegicus [4]): 0.622 mL
viability at 24 h, 20 µM [5]: 90%
Activity (Mus musculus [6]): 51
Activity (Mus musculus [7]): 45.04%
inhibition at 20 µM (RAW264.7): 60.7%
inhibition in vivo at 20 mg/kg (Rattus norvegicus [8]): 69.3%
Activity (Rattus norvegicus [9]): Non-toxic

COc1ccc2c(c1)c(CC(=O)O)c(C)n2C(=O)c1ccc(Cl)cc1 [INDOMETHACIN]
inhibition in vivo at 20 mg/kg (Rattus norvegicus [1]): 77%
Activity (Rattus norvegicus [2]): 0.608 mL
inhibition [10]: Active
Activity (Rattus norvegicus [4]): 0.54 mL
inhibition [11]: Active
viability at 24 h, 20 µM [5]: 55%
Activity (Mus musculus [6]): 39.4
Activity (Mus musculus [7]): 57.43%
inhibition at 20 µM (RAW264.7): 68%
inhibition in vivo at 20 mg/kg (Rattus norvegicus [8]): 72%
inhibition [12]: Active
Activity (Rattus norvegicus [9]): Toxic

O=C(/C=C/C=C/c1ccc2c(c1)OCO2)OCc1cn(-c2ccc(Cl)cc2)nn1
inhibition in vivo at 20 mg/kg (Rattus norvegicus [1]): 59.7%
Activity (Rattus norvegicus [2]): 0.83 mL
Activity (Rattus norvegicus [4]): 0.81 mL
inhibition in vivo at 20 mg/kg (Rattus norvegicus [8]): 57.5%

O=C(/C=C/C=C/c1ccc2c(c1)OCO2)OCc1cn(-c2ccc(F)cc2)nn1
inhibition in vivo at 20 mg/kg (Rattus norvegicus [1]): 57%
Activity (Rattus norvegicus [2]): 0.87 mL
Activity (Rattus norvegicus [4]): 0.85 mL
inhibition in vivo at 20 mg/kg (Rattus norvegicus [8]): 55.5%

O=C(/C=C/C=C/c1ccc2c(c1)OCO2)N1CCCCC1 [PIPERINE]
inhibition in vivo at 20 mg/kg (Rattus norvegicus [1]): 54.7%
Activity (Rattus norvegicus [2]): 0.676 mL
Activity (Rattus norvegicus [4]): 0.67 mL
inhibition at 20 µM (RAW264.7): 49.7%
inhibition in vivo at 20 mg/kg (Rattus norvegicus [8]): 53.7%
Activity (Rattus norvegicus [9]): Non-toxic

O=C(/C=C/C=C/c1ccc2c(c1)OCO2)OCc1cn(-c2ccccc2F)nn1
inhibition in vivo at 20 mg/kg (Rattus norvegicus [1]): 70.8%
Activity (Rattus norvegicus [2]): 0.68 mL
Activity (Rattus norvegicus [4]): 0.65 mL
Activity (Mus musculus [6]): 45.8
Activity (Mus musculus [7]): 48.7%
inhibition in vivo at 20 mg/kg (Rattus norvegicus [8]): 68.2%

COc1ccc(-n2cc(COC(=O)/C=C/C=C/c3ccc4c(c3)OCO4)nn2)cc1
inhibition in vivo at 20 mg/kg (Rattus norvegicus [1]): 55.9%
Activity (Rattus norvegicus [2]): 0.88 mL
Activity (Rattus norvegicus [4]): 0.86 mL
inhibition in vivo at 20 mg/kg (Rattus norvegicus [8]): 54%

O=C(/C=C/C=C/c1ccc2c(c1)OCO2)OCc1cn(-c2ccccc2)nn1
inhibition in vivo at 20 mg/kg (Rattus norvegicus [1]): 38.5%
Activity (Rattus norvegicus [2]): 1.12 mL
Activity (Rattus norvegicus [4]): 1.11 mL
inhibition in vivo at 20 mg/kg (Rattus norvegicus [8]): 37%

O=C(/C=C/C=C/c1ccc2c(c1)OCO2)OCc1cn(-c2ccc([N+](=O)[O-])cc2)nn1
inhibition in vivo at 20 mg/kg (Rattus norvegicus [1]): 22.1%
Activity (Rattus norvegicus [2]): 1.39 mL
Activity (Rattus norvegicus [4]): 1.37 mL
inhibition in vivo at 20 mg/kg (Rattus norvegicus [8]): 19.6%

Cc1ccccc1-n1cc(COC(=O)/C=C/C=C/c2ccc3c(c2)OCO3)nn1
inhibition in vivo at 20 mg/kg (Rattus norvegicus [1]): 54.6%
Activity (Rattus norvegicus [2]): 0.91 mL
Activity (Rattus norvegicus [4]): 0.88 mL
inhibition in vivo at 20 mg/kg (Rattus norvegicus [8]): 51.5%

O=C(/C=C/C=C/c1ccc2c(c1)OCO2)OCc1cn(-c2ccc(Br)cc2)nn1
inhibition in vivo at 20 mg/kg (Rattus norvegicus [1]): 55.5%
Activity (Rattus norvegicus [2]): 0.89 mL
Activity (Rattus norvegicus [4]): 0.87 mL
inhibition in vivo at 20 mg/kg (Rattus norvegicus [8]): 53.6%

O=C(/C=C/C=C/c1ccc2c(c1)OCO2)OCc1cn(-c2cccc(Cl)c2)nn1
inhibition in vivo at 20 mg/kg (Rattus norvegicus [1]): 67.8%
Activity (Rattus norvegicus [2]): 0.71 mL
Activity (Rattus norvegicus [4]): 0.69 mL
inhibition in vivo at 20 mg/kg (Rattus norvegicus [8]): 64.7%

O=C(/C=C/C=C/c1ccc2c(c1)OCO2)OCc1cn(-c2cccc([N+](=O)[O-])c2)nn1
inhibition in vivo at 20 mg/kg (Rattus norvegicus [1]): 15.4%
Activity (Rattus norvegicus [2]): 1.44 mL
Activity (Rattus norvegicus [4]): 1.46 mL
inhibition in vivo at 20 mg/kg (Rattus norvegicus [8]): 15.6%

O=C(/C=C/C=C/c1ccc2c(c1)OCO2)OCc1cn(-c2ccccc2Cl)nn1
inhibition in vivo at 20 mg/kg (Rattus norvegicus [1]): 76.7%
Activity (Rattus norvegicus [2]): 0.58 mL
inhibition [10]: Active
inhibition [3]: Active
Activity (Rattus norvegicus [4]): 0.56 mL
inhibition [11]: Active
viability at 24 h, 20 µM [5]: 90%
Activity (Mus musculus [6]): 45.8
Activity (Mus musculus [7]): 50.64%
inhibition at 20 µM (RAW264.7): 73.7%
inhibition in vivo at 20 mg/kg (Rattus norvegicus [8]): 74.5%
inhibition [12]: Active
Activity (Rattus norvegicus [9]): Non-toxic

CCOc1ccc(-n2cc(COC(=O)/C=C/C=C/c3ccc4c(c3)OCO4)nn2)cc1
inhibition in vivo at 20 mg/kg (Rattus norvegicus [1]): 36.5%
Activity (Rattus norvegicus [2]): 1.1 mL
Activity (Rattus norvegicus [4]): 1.14 mL
inhibition in vivo at 20 mg/kg (Rattus norvegicus [8]): 32.9%

O=C(/C=C/C=C/c1ccc2c(c1)OCO2)OCc1cn(-c2ccccc2Br)nn1
inhibition in vivo at 20 mg/kg (Rattus norvegicus [1]): 80.4%
Activity (Rattus norvegicus [2]): 0.56 mL
inhibition [10]: Active
inhibition [3]: Active
Activity (Rattus norvegicus [4]): 0.51 mL
inhibition [11]: Active
viability at 24 h, 20 µM [5]: 90%
Activity (Mus musculus [6]): 42.6
Activity (Mus musculus [7]): 54.09%
inhibition at 20 µM (RAW264.7): 70.6%
inhibition in vivo at 20 mg/kg (Rattus norvegicus [8]): 76.1%
inhibition [12]: Active
Activity (Rattus norvegicus [9]): Non-toxic

CCc1ccc(-n2cc(COC(=O)/C=C/C=C/c3ccc4c(c3)OCO4)nn2)cc1
inhibition in vivo at 20 mg/kg (Rattus norvegicus [1]): 60%
Activity (Rattus norvegicus [2]): 0.83 mL
Activity (Rattus norvegicus [4]): 0.8 mL
inhibition in vivo at 20 mg/kg (Rattus norvegicus [8]): 57.5%

Cc1ccc(-n2cc(COC(=O)/C=C/C=C/c3ccc4c(c3)OCO4)nn2)cc1
inhibition in vivo at 20 mg/kg (Rattus norvegicus [1]): 49.1%
Activity (Rattus norvegicus [2]): 1.01 mL
Activity (Rattus norvegicus [4]): 0.98 mL
inhibition in vivo at 20 mg/kg (Rattus norvegicus [8]): 46.2%

COc1ccccc1-n1cc(COC(=O)/C=C/C=C/c2ccc3c(c2)OCO3)nn1
inhibition in vivo at 20 mg/kg (Rattus norvegicus [1]): 65%
Activity (Rattus norvegicus [2]): 0.76 mL
Activity (Rattus norvegicus [4]): 0.72 mL
inhibition in vivo at 20 mg/kg (Rattus norvegicus [8]): 61.6%

Cc1ccc(-n2cc(COC(=O)/C=C/C=C/c3ccc4c(c3)OCO4)nn2)cc1C
inhibition in vivo at 20 mg/kg (Rattus norvegicus [1]): 70.3%
Activity (Rattus norvegicus [2]): 0.68 mL
Activity (Rattus norvegicus [4]): 0.66 mL
Activity (Mus musculus [6]): 51.2
Activity (Mus musculus [7]): 44.93%
inhibition in vivo at 20 mg/kg (Rattus norvegicus [8]): 67.9%

O=C(/C=C/C=C/c1ccc2c(c1)OCO2)OCc1cn(-c2ccc(Cl)c(Cl)c2)nn1
inhibition in vivo at 20 mg/kg (Rattus norvegicus [1]): 73%
Activity (Rattus norvegicus [2]): 0.632 mL
inhibition [3]: Active
Activity (Rattus norvegicus [4]): 0.588 mL
viability at 24 h, 20 µM [5]: 90%
Activity (Mus musculus [6]): 46.4
Activity (Mus musculus [7]): 50%
inhibition at 20 µM (RAW264.7): 63.6%
inhibition in vivo at 20 mg/kg (Rattus norvegicus [8]): 69.6%
Activity (Rattus norvegicus [9]): Non-toxic
